In patent publication US10934298B2, “Substituted pyrazolo[1,5-a]pyrimidines for the treatment of medical disorders” (BIAL—BioTech Investments, Inc., priority 2016, dated 2021):

Molecular target: T1, glucocerebrosidase (Gcase) (Homo sapiens, UniProt P04062)
T1 construct: micellar solution containing 10 nM GCase and 100 nM saposin C
T1 sequence (P04062 40-536): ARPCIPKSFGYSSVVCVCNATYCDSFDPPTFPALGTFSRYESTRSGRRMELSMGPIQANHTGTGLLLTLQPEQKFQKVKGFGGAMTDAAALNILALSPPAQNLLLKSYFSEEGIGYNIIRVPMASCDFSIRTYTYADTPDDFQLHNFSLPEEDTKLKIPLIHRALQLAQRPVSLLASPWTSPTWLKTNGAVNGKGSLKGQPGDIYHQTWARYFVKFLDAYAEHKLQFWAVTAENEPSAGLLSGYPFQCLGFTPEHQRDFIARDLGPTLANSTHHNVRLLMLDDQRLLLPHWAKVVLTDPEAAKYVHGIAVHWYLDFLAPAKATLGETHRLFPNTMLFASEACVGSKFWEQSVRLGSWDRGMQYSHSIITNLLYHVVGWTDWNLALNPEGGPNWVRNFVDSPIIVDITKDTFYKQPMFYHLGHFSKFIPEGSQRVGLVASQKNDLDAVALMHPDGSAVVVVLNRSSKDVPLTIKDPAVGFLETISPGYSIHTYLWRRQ
Experiment: Glucocerebrosidase (Gcase) activation assay with 4-methylumbelliferyl-beta-D-glucopyranoside substrate, saposin C and phosphatidylserine/triton micelles, fluorescence readout
Assay type: biochemical
How it was run: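 Test compounds are first screened at 1.0 and 0.1 μM final, then titrated in 8 points (3-fold from 5 μM) against human GCase with saposin C in phosphatidylserine/triton X-100 micelles at pH 4.7. Reactions run 15 min at room temperature, with fluorescence read at 365/440 nm.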

Cc1cnc(F)c(-c2cc(C)n3ncc(C(=O)N[C@H](C4CC4)C(F)(F)F)c3n2)c1 [III-374]
Percent Gcase Activation, 0.1 μM Test Compound (0.1 μM test compound): *** (greater than 20% Gcase activation)
Percent Gcase Activation, 1 μM Test Compound (1 μM test compound): +++ (Gcase activation greater than 60%)

Cc1cc(-c2cc(C#N)ccc2F)nc2c(C(=O)N[C@@H](C)C(F)(F)F)cnn12 [III-352]
Percent Gcase Activation, 0.1 μM Test Compound (0.1 μM test compound): ** (Gcase activation in the range of 10% up to 20%)
Percent Gcase Activation, 1 μM Test Compound (1 μM test compound): +++ (Gcase activation greater than 60%)

Cc1cc(C2=CC(C)(C)CCO2)nc2c(C(=O)NC(C3CC3)C(F)(F)F)cnn12 (centres unmarked) [III-322]
Percent Gcase Activation, 0.1 μM Test Compound (0.1 μM test compound): *** (greater than 20% Gcase activation)
Percent Gcase Activation, 1 μM Test Compound (1 μM test compound): +++ (Gcase activation greater than 60%)

CCc1cc(-c2ccccn2)nc2c(C(=O)NC(C)C(F)(F)F)cnn12 (centres unmarked) [III-52]
Percent Gcase Activation, 0.1 μM Test Compound (0.1 μM test compound, Table 3A): * (less than 10% Gcase activation)
Percent Gcase Activation, 1 μM Test Compound (1 μM test compound, Table 3A): +++ (Gcase activation greater than 60%)

COCc1cc(-c2cccc(F)c2)nc2c(C(=O)NC(C)(C)C3CC3)cnn12 [III-74]
Percent Gcase Activation, 0.1 μM Test Compound (0.1 μM test compound, Table 3A): ** (Gcase activation in the range of 10% up to 20%)
Percent Gcase Activation, 1 μM Test Compound (1 μM test compound, Table 3A): +++ (Gcase activation greater than 60%)

Cc1cc(C)n2ncc(C(=O)NC(CC(C)C)C3CC3)c2n1 (centres unmarked) [III-5]
Percent Gcase Activation, 0.1 μM Test Compound (0.1 μM test compound, Table 3A): *** (greater than 20% Gcase activation)
Percent Gcase Activation, 1 μM Test Compound (1 μM test compound, Table 3A): +++ (Gcase activation greater than 60%)

Cc1cc(-c2cccnc2)nc2c(C(=O)NC(C)C(F)(F)F)cnn12 (centres unmarked) [III-43]
Percent Gcase Activation, 0.1 μM Test Compound (0.1 μM test compound, Table 3A): * (less than 10% Gcase activation)
Percent Gcase Activation, 1 μM Test Compound (1 μM test compound, Table 3A): ++ (Gcase activation in the range of 30% up to 60%)

Cc1cc(C)n2ncc(C(=O)N[C@@H](C3CC3)C(F)(F)F)c2n1 [III-11]
Percent Gcase Activation, 0.1 μM Test Compound (0.1 μM test compound, Table 3A): ** (Gcase activation in the range of 10% up to 20%)
Percent Gcase Activation, 1 μM Test Compound (1 μM test compound, Table 3A): +++ (Gcase activation greater than 60%)

Cc1coc(-c2cc(C)n3ncc(C(=O)N[C@@H](C4CC4)C(F)(F)F)c3n2)n1 [III-256]
Percent Gcase Activation, 0.1 μM Test Compound (test compound at 0.1 μM): *** (greater than 20% Gcase activation)
Percent Gcase Activation, 1 μM Test Compound (test compound at 1.0 μM): +++ (Gcase activation greater than 60%)

C#CC(NC(=O)c1cnn2c(C)cc(-c3cccc(OC)c3)nc12)C(F)(F)F (centres unmarked) [III-96]
Percent Gcase Activation, 0.1 μM Test Compound (test compound at 0.1 μM): *** (greater than 20% Gcase activation)
Percent Gcase Activation, 1 μM Test Compound (test compound at 1.0 μM): +++ (Gcase activation greater than 60%)

Cc1cc(-c2ccc(F)cc2)nc2c(C(=O)N[C@@H](C)C3CC3)c(Cl)nn12 [III-32]
Percent Gcase Activation, 0.1 μM Test Compound (0.1 μM test compound, Table 3A): ** (Gcase activation in the range of 10% up to 20%)
Percent Gcase Activation, 1 μM Test Compound (1 μM test compound, Table 3A): +++ (Gcase activation greater than 60%)

Cc1cc(-c2cscc2C#N)nc2c(C(=O)NC(C3CC3)C(F)(F)F)cnn12 (centres unmarked) [III-188]
Percent Gcase Activation, 0.1 μM Test Compound (test compound at 0.1 μM): *** (greater than 20% Gcase activation)
Percent Gcase Activation, 1 μM Test Compound (test compound at 1.0 μM): +++ (Gcase activation greater than 60%)

Cc1cc(-c2cccnc2C(F)(F)F)nc2c(C(=O)N[C@H](C3CC3)C(F)(F)F)cnn12 [III-355]
Percent Gcase Activation, 0.1 μM Test Compound (0.1 μM test compound): *** (greater than 20% Gcase activation)
Percent Gcase Activation, 1 μM Test Compound (1 μM test compound): +++ (Gcase activation greater than 60%)

Cc1cc(-c2cccc(Cl)n2)nc2c(C(=O)NC(C3CC3)C(F)(F)F)cnn12 (centres unmarked) [III-237]
Percent Gcase Activation, 0.1 μM Test Compound (test compound at 0.1 μM): *** (greater than 20% Gcase activation)
Percent Gcase Activation, 1 μM Test Compound (test compound at 1.0 μM): +++ (Gcase activation greater than 60%)

Cc1cc(N2CCCN(C(C)C)C2=O)nc2c(C(=O)NC(C)C(F)(F)F)cnn12 (centres unmarked) [III-259]
Percent Gcase Activation, 0.1 μM Test Compound (test compound at 0.1 μM): * (less than 10% Gcase activation)
Percent Gcase Activation, 1 μM Test Compound (test compound at 1.0 μM): + (less than 30% Gcase activation)

Cc1cc(C2CC(C)(C)CCO2)nc2c(C(=O)NC(C3CC3)C(F)(F)F)cnn12 (centres unmarked) [III-323]
Percent Gcase Activation, 0.1 μM Test Compound (0.1 μM test compound): ** (Gcase activation in the range of 10% up to 20%)
Percent Gcase Activation, 1 μM Test Compound (1 μM test compound): +++ (Gcase activation greater than 60%)

Cc1cc(-c2ccns2)nc2c(C(=O)N[C@H](C)C3CC3)cnn12 [III-198]
Percent Gcase Activation, 0.1 μM Test Compound (test compound at 0.1 μM): * (less than 10% Gcase activation)
Percent Gcase Activation, 1 μM Test Compound (test compound at 1.0 μM): +++ (Gcase activation greater than 60%)

Cc1cc(-c2ccc(C#N)nc2)nc2c(C(=O)N[C@@H](C3CC3)C(F)(F)F)cnn12 [III-368]
Percent Gcase Activation, 0.1 μM Test Compound (0.1 μM test compound): ** (Gcase activation in the range of 10% up to 20%)
Percent Gcase Activation, 1 μM Test Compound (1 μM test compound): +++ (Gcase activation greater than 60%)

Cc1cc(-c2ccc(F)cc2C#N)nc2c(C(=O)N[C@@H](C)C3CC3)cnn12 [III-152]
Percent Gcase Activation, 0.1 μM Test Compound (test compound at 0.1 μM): *** (greater than 20% Gcase activation)
Percent Gcase Activation, 1 μM Test Compound (test compound at 1.0 μM): +++ (Gcase activation greater than 60%)

Cc1cc(N2CCCCC2)nc2c(C(=O)NC(C)(C)C3CC3)cnn12 [III-23]
Percent Gcase Activation, 0.1 μM Test Compound (0.1 μM test compound, Table 3A): *** (greater than 20% Gcase activation)
Percent Gcase Activation, 1 μM Test Compound (1 μM test compound, Table 3A): +++ (Gcase activation greater than 60%)

Cc1cc(-c2ccc(F)cc2)n2nc(Cl)c(C(=O)N[C@@H](C)C3CC3)c2n1 [III-33]
Percent Gcase Activation, 0.1 μM Test Compound (0.1 μM test compound, Table 3A): * (less than 10% Gcase activation)
Percent Gcase Activation, 1 μM Test Compound (1 μM test compound, Table 3A): ++ (Gcase activation in the range of 30% up to 60%)

Cc1oc(C#N)cc1-c1cc(C)n2ncc(C(=O)N[C@H](C3CC3)C(F)(F)F)c2n1 [III-243]
Percent Gcase Activation, 0.1 μM Test Compound (test compound at 0.1 μM): *** (greater than 20% Gcase activation)
Percent Gcase Activation, 1 μM Test Compound (test compound at 1.0 μM): +++ (Gcase activation greater than 60%)

Cc1cc(-c2cccc(F)c2)nc2c(C(=O)NC(C)(C)C(F)(F)F)cnn12 [III-80]
Percent Gcase Activation, 0.1 μM Test Compound (0.1 μM test compound, Table 3A): ** (Gcase activation in the range of 10% up to 20%)
Percent Gcase Activation, 1 μM Test Compound (1 μM test compound, Table 3A): +++ (Gcase activation greater than 60%)

C#Cc1cncc(-c2cc(C)n3ncc(C(=O)N[C@@H](C4CC4)C(F)(F)F)c3n2)c1 [III-383]
Percent Gcase Activation, 0.1 μM Test Compound (0.1 μM test compound): *** (greater than 20% Gcase activation)
Percent Gcase Activation, 1 μM Test Compound (1 μM test compound): +++ (Gcase activation greater than 60%)

Cc1cc(-c2cccnc2Cl)nc2c(C(=O)NC(C3CC3)C(F)(F)F)cnn12 (centres unmarked) [III-123]
Percent Gcase Activation, 0.1 μM Test Compound (test compound at 0.1 μM): ** (Gcase activation in the range of 10% up to 20%)
Percent Gcase Activation, 1 μM Test Compound (test compound at 1.0 μM): +++ (Gcase activation greater than 60%)

Cc1cc(C)n2ncc(C(=O)NC(C3CC3)C(F)(F)F)c2n1 (centres unmarked) [III-9]
Percent Gcase Activation, 0.1 μM Test Compound (0.1 μM test compound, Table 3A): ** (Gcase activation in the range of 10% up to 20%)
Percent Gcase Activation, 1 μM Test Compound (1 μM test compound, Table 3A): +++ (Gcase activation greater than 60%)

Cc1cc(N2CC(C(C)C)NC2=O)nc2c(C(=O)NC(C3CC3)C(F)(F)F)cnn12 (centres unmarked) [III-320]
Percent Gcase Activation, 0.1 μM Test Compound (0.1 μM test compound): *** (greater than 20% Gcase activation)
Percent Gcase Activation, 1 μM Test Compound (1 μM test compound): +++ (Gcase activation greater than 60%)

Cc1cc(-c2ccccc2)nc2c(C(=O)N[C@@H](C)C3CC3)cnn12 [III-136]
Percent Gcase Activation, 0.1 μM Test Compound (test compound at 0.1 μM): *** (greater than 20% Gcase activation)
Percent Gcase Activation, 1 μM Test Compound (test compound at 1.0 μM): +++ (Gcase activation greater than 60%)

Cc1cc(N2CCCC(F)(F)C2)nc2c(C(=O)N[C@H](C3CC3)C(F)(F)F)cnn12 [III-94]
Percent Gcase Activation, 0.1 μM Test Compound (test compound at 0.1 μM): *** (greater than 20% Gcase activation)
Percent Gcase Activation, 1 μM Test Compound (test compound at 1.0 μM): +++ (Gcase activation greater than 60%)

Cc1cc(-c2cccc(-n3cccn3)c2)nc2c(C(=O)NC(C3CC3)C(F)(F)F)cnn12 (centres unmarked) [III-415]
Percent Gcase Activation, 0.1 μM Test Compound (0.1 μM test compound): *** (greater than 20% Gcase activation)
Percent Gcase Activation, 1 μM Test Compound (1 μM test compound): ++ (Gcase activation in the range of 30% up to 60%)

Cc1cc(C)n2ncc(C(=O)NC(C)(C)C3CC4(CCC4)C3)c2n1 [III-13]
Percent Gcase Activation, 0.1 μM Test Compound (0.1 μM test compound, Table 3A): *** (greater than 20% Gcase activation)
Percent Gcase Activation, 1 μM Test Compound (1 μM test compound, Table 3A): +++ (Gcase activation greater than 60%)

Cc1cc(-c2ccoc2)nc2c(C(=O)NC(C3CC3)C(F)(F)F)cnn12 (centres unmarked) [III-187]
Percent Gcase Activation, 0.1 μM Test Compound (test compound at 0.1 μM): *** (greater than 20% Gcase activation)
Percent Gcase Activation, 1 μM Test Compound (test compound at 1.0 μM): +++ (Gcase activation greater than 60%)

Cc1cc(-c2cncc(Cl)c2)nc2c(C(=O)N[C@H](C)C3CC3)cnn12 [III-291]
Percent Gcase Activation, 0.1 μM Test Compound (0.1 μM test compound): *** (greater than 20% Gcase activation)
Percent Gcase Activation, 1 μM Test Compound (1 μM test compound): +++ (Gcase activation greater than 60%)

Cc1cc(-c2cccc3ncsc23)nc2c(C(=O)N[C@@H](C)C3CC3)cnn12 [III-222]
Percent Gcase Activation, 0.1 μM Test Compound (test compound at 0.1 μM): *** (greater than 20% Gcase activation)
Percent Gcase Activation, 1 μM Test Compound (test compound at 1.0 μM): +++ (Gcase activation greater than 60%)

COc1c(F)cccc1-c1cc(C)n2ncc(C(=O)N[C@@H](C)C3CC3)c2n1 [III-138]
Percent Gcase Activation, 0.1 μM Test Compound (test compound at 0.1 μM): ** (Gcase activation in the range of 10% up to 20%)
Percent Gcase Activation, 1 μM Test Compound (test compound at 1.0 μM): +++ (Gcase activation greater than 60%)

COc1cc(-c2cc(C)n3ncc(C(=O)N[C@@H](C)C4CC4)c3n2)ccc1F [III-145]
Percent Gcase Activation, 0.1 μM Test Compound (test compound at 0.1 μM): *** (greater than 20% Gcase activation)
Percent Gcase Activation, 1 μM Test Compound (test compound at 1.0 μM): +++ (Gcase activation greater than 60%)

C#CC(C)(C)NC(=O)c1cnn2c(C)cc(-c3ccns3)nc12 [III-412]
Percent Gcase Activation, 0.1 μM Test Compound (0.1 μM test compound): * (less than 10% Gcase activation)
Percent Gcase Activation, 1 μM Test Compound (1 μM test compound): +++ (Gcase activation greater than 60%)
